{
  "source": "patent US10000501B2",
  "about": "“Inhibitors of HIF prolyl hydroxylase” (MERCK SHARP & DOHME CORP., priority 2014, dated 2018)",
  "data": [
    {"molecular_target": "T1, human HIF-PHD2 (Homo sapiens, UniProt Q9GZT9)", "T1 construct": "FLAG-tagged full length PHD2 expressed in and purified from baculovirus-infected Sf9 cells; FLAG; made in house; host or cells: baculovirus-infected Sf9 cells", "T1 sequence (Q9GZT9 whole entry)": "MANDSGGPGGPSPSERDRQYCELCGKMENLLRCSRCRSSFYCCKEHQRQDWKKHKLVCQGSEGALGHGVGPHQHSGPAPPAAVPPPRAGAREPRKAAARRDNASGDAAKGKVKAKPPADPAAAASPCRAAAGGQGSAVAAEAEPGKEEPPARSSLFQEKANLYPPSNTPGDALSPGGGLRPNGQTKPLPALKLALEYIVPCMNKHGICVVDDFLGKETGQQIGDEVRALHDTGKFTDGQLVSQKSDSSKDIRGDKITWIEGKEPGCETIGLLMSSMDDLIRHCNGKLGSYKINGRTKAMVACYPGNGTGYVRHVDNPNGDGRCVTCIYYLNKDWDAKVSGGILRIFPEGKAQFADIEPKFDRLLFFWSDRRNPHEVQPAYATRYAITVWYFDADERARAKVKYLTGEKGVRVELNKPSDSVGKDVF", "assay": "HIF-PHD2 inhibition assay (hydroxylation of HIF-1α peptide, time resolved fluorescence)", "format": "biochemical", "conditions": "FLAG-tagged full length PHD2; 0.2 μM 2-oxoglutarate, 0.5 μM HIF-1α peptide", "description": "To each well of a 384-well plate, 1 μL of test compounds in DMSO (final concentration ranging from 0.3 nM to 10 uM) were added into 20 μl of assay buffer (50 mM Tris pH 7.4/0.01% Tween-20/0.1 mg/ml bovine serum albumin/10 μM ferrous sulfate/1 mM sodium ascorbate/20 μg/ml catalase) containing 0.15 μg/ml FLAG-tagged full length PHD2 expressed in and purified from baculovirus-infected Sf9 cells. […] Purif.", "units": {"IC50": "nM"}, "values": [
      {"smiles": "O=C(O)CNC(=O)c1c(O)c2c(n(Cc3nc4ccccc4s3)c1=O)C1CCC2C1", "note": "(racemic) [Example 82, 2-((5S,8R)-1-(benzo[d]thiazol-2-ylmethyl)-4-hydroxy-2-oxo-1,2,5,6,7,8-hexahydro-5,8-methanoquinoline-3-carboxamido)acetic acid]", "IC50": 43},
      {"smiles": "CN1Cc2c(c(O)c(C(=O)NCC(=O)O)c(=O)n2Cc2ccc(C(F)(F)F)cc2)CC1=O", "note": "[Example 3, 2-(4-Hydroxy-7-methyl-2,6-dioxo-1-(4-(trifluoromethyl)benzyl)-1,2,5,6,7,8-hexahydro-1,7-naphthyridine-3-carboxamido)acetic acid]", "IC50": 6.7},
      {"smiles": "O=C(O)CNC(=O)c1c(O)c2c([nH]c1=O)CCOC2", "note": "[Example 4, 2-(4-Hydroxy-2-oxo-2,5,7,8-tetrahydro-1H-pyrano[4,3-b]pyridine-3-carboxamido)acetic acid]", "IC50": 41.8},
      {"smiles": "N#Cc1ccc(Cn2c3c(c(O)c(C(=O)NCC(=O)O)c2=O)COCC3)cc1", "note": "[Example 5, 2-(1-(4-Cyanobenzyl)-4-hydroxy-2-oxo-2,5,7,8-tetrahydro-1H-pyrano[4,3-b]pyridine-3-carboxamido)acetic acid]", "IC50": 13.9},
      {"smiles": "COc1ccc(Cn2c3c(c(O)c(C(=O)NCC(=O)O)c2=O)COCC3)cc1", "note": "[Example 6, 2-(4-hydroxy-1-(4-methoxybenzyl)-2-oxo-2,5,7,8-tetrahydro-1H-pyrano[4,3-b]pyridine-3-carboxamido)acetic acid]", "IC50": 15.6},
      {"smiles": "O=C(O)CNC(=O)c1c(O)c2c(n(Cc3ccc(OC(F)(F)F)cc3)c1=O)CCOC2", "note": "[Example 7, 2-(4-hydroxy-2-oxo-1-(4-(trifluoromethoxy)benzyl)-2,5,7,8-tetrahydro-1H-pyrano[4,3-b]pyridine-3-carboxamido)acetic acid]", "IC50": 10.3},
      {"smiles": "O=C(O)CNC(=O)c1c(O)c2c(n(Cc3ccc(OC(F)F)cc3)c1=O)CCOC2", "note": "[Example 8, 2-(1-(4-(difluoromethxoy)benzyl)-4-hydroxy-2-oxo-2,5,7,8-tetrahydro-1H-pyrano[4,3-b]pyridine-3-carboxamido)acetic acid]", "IC50": 13.4},
      {"smiles": "O=C(O)CNC(=O)c1c(O)c2c(n(Cc3ccc(F)cc3)c1=O)CCOC2", "note": "[Example 9, 2-(1-(4-fluorobenzyl)-4-hydroxy-2-oxo-2,5,7,8-tetrahydro-1H-pyrano[4,3-b]pyridine-3-carboxamido)acetic acid]", "IC50": 13.7},
      {"smiles": "CS(=O)(=O)c1ccc(Cn2c3c(c(O)c(C(=O)NCC(=O)O)c2=O)COCC3)cc1", "note": "[Example 11, 2-(4-hydroxy-1-(4-(methylsulfonyl)benzyl)-2-oxo-2,5,7,8-tetrahydro-1H-pyrano[4,3-b]pyridine-3-carboxamido)acetic acid]", "IC50": 20.2},
      {"smiles": "CC(C)c1ccc(Cn2c3c(c(O)c(C(=O)NCC(=O)O)c2=O)COCC3)cc1", "note": "[Example 12, 2-(4-hydroxy-1-(4-isopropylbenzyl)-2-oxo-2,5,7,8-tetrahydro-1H-pyrano[4,3-b]pyridine-3-carboxamido)acetic acid]", "IC50": 12.5},
      {"smiles": "CC(C)Oc1ccc(Cn2c3c(c(O)c(C(=O)NCC(=O)O)c2=O)COCC3)cc1", "note": "[Example 13, 2-(4-hydroxy-1-(4-isopropoxybenzyl)-2-oxo-2,5,7,8-tetrahydro-1H-pyrano[4,3-b]pyridine-3-carboxamido)acetic acid]", "IC50": 20.5},
      {"smiles": "O=C(O)CNC(=O)c1c(O)c2c(n(Cc3ccc(F)c(F)c3)c1=O)CCOC2", "note": "[Example 15, 2-(1-(3,4-difluorobenzyl)-4-hydroxy-2-oxo-2,5,7,8-tetrahydro-1H-pyrano[4,3-b]pyridine-3-carboxamido)acetic acid]", "IC50": 14.7},
      {"smiles": "O=C(O)CNC(=O)c1c(O)c2c(n(Cc3ccc(F)cc3F)c1=O)CCOC2", "note": "[Example 16, 2-(1-(2,4-difluorobenzyl)-4-hydroxy-2-oxo-2,5,7,8-tetrahydro-1H-pyrano[4,3-b]pyridine-3-carboxamido)acetic acid]", "IC50": 10.3},
      {"smiles": "O=C(O)CNC(=O)c1c(O)c2c(n(Cc3ccc(Cl)cc3F)c1=O)CCOC2", "note": "[Example 18, 2-(1-(4-chloro-2-fluorobenzyl)-4-hydroxy-2-oxo-2,5,7,8-tetrahydro-1H-pyrano[4,3-b]pyridine-3-carboxamid)acetic acid]", "IC50": 19.2},
      {"smiles": "CCn1c2c(c(O)c(C(=O)NCC(=O)O)c1=O)COCC2", "note": "[Example 19, 2-(1-ethyl-4-hydroxy-2-oxo-2,5,7,8-tetrahydro-1H-pyrano[4,3-b]pyridine-3-carboxamido)acetic acid]", "IC50": 78.5},
      {"smiles": "O=C(O)CNC(=O)c1c(O)c2c(n(CC3CCCCC3)c1=O)CCOC2", "note": "[Example 20, 2-(1-(cyclohexylmethyl)-4-hydroxy-2-oxo-2,5,7,8-tetrahydro-1H-pyrano[4,3-b]pyridine-3-carboxamido)acetic acid]", "IC50": 76},
      {"smiles": "O=C(O)CNC(=O)c1c(O)c2c(n(Cc3ccc4ccccc4c3)c1=O)CCOC2", "note": "[Example 21, 2-(4-hydroxy-1-(naphthalen-2-ylmethyl)-2-oxo-2,5,7,8-tetrahydro-1H-pyrano[4,3-b]pyridine-3-carboxamido)acetic acid]", "IC50": 37.7},
      {"smiles": "Cn1c2c(c(O)c(C(=O)NCC(=O)O)c1=O)COCC2", "note": "[Example 22, 2-(4-hydroxy-1-methyl-2-oxo-2,5,7,8-tetrahydro-1H-pyrano[4,3-b]pyridine-3-carboxamido)acetic acid]", "IC50": 56.1},
      {"smiles": "O=C(O)CNC(=O)c1c(O)c2c(n(Cc3ncc(C(F)(F)F)cn3)c1=O)CCOC2", "note": "[Example 23, 2-(4-hydroxy-2-oxo-1-((5-(trifluoromethyl)pyrimidin-2-yl)methyl)-2,5,7,8-tetrahydro-1H-pyrano[4,3-b]pyridine-3-carboxamido)acetic acid]", "IC50": 44.5},
      {"smiles": "O=C(O)CNC(=O)c1c(O)c2c(n(Cc3cc(F)c(F)cc3F)c1=O)CCOC2", "note": "[Example 24, 2-(4-Hydroxy-2-oxo-1-(2,4,5-trifluorobenzyl)-2,5,7,8-tetrahydro-1H-pyrano[4,3-b]pyridine-3-carboxamido)acetic acid]", "IC50": 16.8},
      {"smiles": "CNC(=O)c1ccc(Cn2c3c(c(O)c(C(=O)NCC(=O)O)c2=O)COCC3)cc1", "note": "[Example 26, 2-(4-Hydroxy-1-(4-(methylcarbamoyl)benzyl)-2-oxo-2,5,7,8-tetrahydro-1H-pyrano[4,3-b]pyridine-3-carboxamido)acetic acid]", "IC50": 30.8},
      {"smiles": "Cn1ccc(Cn2c3c(c(O)c(C(=O)NCC(=O)O)c2=O)COCC3)n1", "note": "[Example 27, 2-(4-Hydroxy-1-((1-methyl-1H-pyrazol-3-yl)methyl)-2-oxo-2,5,7,8-tetrahydro-1H-pyrano[4,3-b]pyridine-3-carboxamido)acetic acid]", "IC50": 32.6},
      {"smiles": "Cc1cc(Cn2c3c(c(O)c(C(=O)NCC(=O)O)c2=O)COCC3)ccc1C#N", "note": "[Example 28, 2-(1-(4-Cyano-3-methylbenzyl)-4-hydroxy-2-oxo-2,5,7,8-tetrahydro-1H-pyrano[4,3-b]pyridine-3-carboxamido)acetic acid]", "IC50": 14.5},
      {"smiles": "N#Cc1ccc(Cn2c3c(c(O)c(C(=O)NCC(=O)O)c2=O)COCC3)cc1F", "note": "[Example 29, 2-(1-(4-Cyano-3-fluorobenzyl)-4-hydroxy-2-oxo-2,5,7,8-tetrahydro-1H-pyrano[4,3-b]pyridine-3-carboxamido)acetic acid]", "IC50": 16},
      {"smiles": "COc1ccc(Cn2c3c(c(O)c(C(=O)NCC(=O)O)c2=O)COCC3)cn1", "note": "[Example 30, 2-(4-Hydroxy-1-((6-methoxypyridin-3-yl)methyl)-2-oxo-2,5,7,8-tetrahydro-1H-pyrano[4,3-b]pyridine-3-carboxamido)acetic acid]", "IC50": 17.4}
    ]}
  ]
}
